Results published in patent US11058705B2, “Drug formulations” (Astex Pharmaceuticals, Inc., priority 2011, dated 2021).
In brackets after ≈: the same amount, converted by molar mass. Read-outs that look alike come from different tables or passages of the source. One block for each compound: values may come before it.

Columns and labels:
DNA methylation = assay: Cell-based GFP assay for reactivation of silenced GFP transgene (demethylating activity); details: for GFP Expression Level: three days, decitabine 1 μM or test compound 30-50 μM, fraction of viable cells expressing GFP; for EC50: read-out: GFP50
Protocol: The demethylating activity of compounds of the invention was tested in a cell-based green fluorescent protein (GFP) assay. In the assay, a decrease in methylation resulting from exposure to a methylation inhibitor led to GFP expression, and was readily scored.
The CMV-EE210 cell line containing the epigenetically silenced GFP transgene was used to assay for reactivation of GFP expression by flow cytometry. CMV-EE210 was made by transfecting NIH 3T3 cells with the pTR-UF/UF1/UF2 plasmid, which contained pBS(+) (Stratagene, Inc.) with a cytomegalovirus (CMV) promoter driving a humanized GFP gene adapted for expression in mammalian cells. After transfection, high-level GFP expressing cells were initially selected by FACS analysis and sorting using a MoFlo cytometer (Cytomation, Inc.).
Decitabine, a potent inhibitor of mammalian DNMT 1, was used as a positive control. […] Cells were then seeded to 30% confluence (˜5000 cell/well) in a 96-well plate containing the test compounds, and grown for three days in at 37° C. in 5% CO2.
The plates were examined under a fluorescent microscope using a 450-490 excitation filter (13 filter cube, Leica, Deerfield Ill.). Wells were scored g1 positive, g2 positive, or g3 if GFP was expressed in 10%, 30%, >75% of viable cells, respectively.
Table 1 provides the results of the test for decitabine and the test compounds as DNA methylation inhibitors. GFP50 is the concentration of an inhibitor at which the Green Fluorescent Protein (GFP) expression level is reduced from g3 to g1/2.

[1] = Solubility in formulation solvent and in water; format: physicochemical; details: organic solvent or mixture; substantially anhydrous solvent of the formulations of the invention
From the text: The good chemical stability taken together with the excellent solubility identified the glycol/glycerin/ethanol (65:25:10) system as a formulation for use in animal experiments.

[2] = Stability in solvent formulations by HPLC; format: physicochemical; details: for % decomposition per hour / Percent compound detected: sodium salt
Protocol: The stability of a compound of the invention in various formulations under various storage conditions was investigated. Stability was determined by HPLC at the designated time intervals.

LINE-1 DNA methylation = LINE-1 DNA methylation in blood samples, repeat dose study; format: in vivo, cynomolgus monkeys; details: until day 22, p<0.05 versus level prior to initial dosing
Protocol: In a repeat dose study, monkeys were dosed 3× weekly subcutaneously (3 mg/kg). […] (FIGS. 1 and 2.) Pharmacodynamic properties (not shown) were monitored and were acceptable. Blood samples were drawn periodically to assay LINE-1 DNA methylation.

[3] = concentration at which GFP expression level is reduced from g3 to g1/2, CMV-EE210 cells

- EC50 (DNA methylation; [3]): 700 nM
Structure (SMILES): Nc1ncn([C@H]2CC(O)[C@@H](COP(=O)(O)OC3C[C@H](n4cnc5c(=O)[nH]c(N)nc54)O[C@@H]3CO)O2)c(=O)n1 (some centres unmarked) [Compound I-2]
- GFP Expression Level (DNA methylation; CMV-EE210 cells): g3 (>75% of viable cells)

- solubility [1]: 130 to 150 mg/mL (≈ 233 to 269 mM)
- Stability in anhydrous DMSO ([2]; anhydrous DMSO): stable
- Improvement in stability ([2]; combined effects of cooling plus addition of ethanol to the propylene glycol/glycerin system): 66 fold
- Improvement in stability ([2]; propylene glycol/glycerin/ethanol (65:25:10), changing from warmer to colder storage conditions): 40 fold
- % decomposition per hour ([2]; DMSO/water (1:1, w/w), 25° C./60% relative humidity): 0.72
- Percent compound detected ([2]; DMSO/water (1:1, w/w), 25° C./60% relative humidity, 5 hours): 90.1%
- Percent compound detected ([2]; DMSO/water (1:1, w/w), 25° C./60% relative humidity, time point 0): 93.7%
- % decomposition per hour ([2]; DMSO/water (3:1, w/w), 25° C./60% relative humidity): 0.10
- Percent compound detected ([2]; DMSO/water (3:1, w/w), 25° C./60% relative humidity, 24 hours): 94.2%
- Percent compound detected ([2]; DMSO/water (3:1, w/w), 25° C./60% relative humidity, time point 0): 96.6%
- % decomposition per hour ([2]; propylene glycol/glycerin (70:30, v/v), room temperature): 0.021
- Percent compound detected ([2]; propylene glycol/glycerin (70:30, v/v), room temperature, 24 hours): 96.3%
- Percent compound detected ([2]; propylene glycol/glycerin (70:30, v/v), room temperature, time point 0): 96.8%
- % decomposition per hour ([2]; propylene glycol/glycerin/ethanol (65:25:10, w/w/w), 2-8° C.): 0.00032
- Percent compound detected ([2]; propylene glycol/glycerin/ethanol (65:25:10, w/w/w), 2-8° C., 3 months): 95.1%
- Percent compound detected ([2]; propylene glycol/glycerin/ethanol (65:25:10, w/w/w), 2-8° C., time point 0): 95.8%
- % decomposition per hour ([2]; propylene glycol/glycerin/ethanol (65:25:10, w/w/w), 25° C./60% relative humidity): 0.013
- Percent compound detected ([2]; propylene glycol/glycerin/ethanol (65:25:10, w/w/w), 25° C./60% relative humidity, 3 months): 67.6%
- Percent compound detected ([2]; propylene glycol/glycerin/ethanol (65:25:10, w/w/w), 25° C./60% relative humidity, time point 0): 95.8%
- % decomposition per hour ([2]; water, pH 7.0, 2-8° C.): 0.14
- Percent compound detected ([2]; water, pH 7.0, 2-8° C., 5 hours): 95.1%
- Percent compound detected ([2]; water, pH 7.0, 2-8° C., time point 0): 95.8%
- % decomposition per hour ([2]; water, pH 7.0, room temperature): 1.1
- Percent compound detected ([2]; water, pH 7.0, room temperature, 5 hours): 90.4%
- Percent compound detected ([2]; water, pH 7.0, room temperature, time point 0): 95.8%
- EC50 (DNA methylation; [3]): 400 nM
Structure (SMILES): Nc1ncn([C@H]2CC(OP(=O)(O)OC[C@H]3O[C@@H](n4cnc5c(=O)[nH]c(N)nc54)CC3O)[C@@H](CO)O2)c(=O)n1 (stereo in doubt) [Compound I-1]
- GFP Expression Level (DNA methylation; CMV-EE210 cells): g3 (>75% of viable cells)
- Change in LINE-1 DNA methylation (LINE-1 DNA methylation): Decreases in LINE-1 DNA methylation

Structure (SMILES): Nc1ncn([C@H]2C[C@H](O)[C@@H](CO)O2)c(=O)n1 [Decitabine, 5-aza-2′-deoxycytidine, reference compound]
- GFP Expression Level (DNA methylation; CMV-EE210 cells): g3 (>75% of viable cells)
- EC50 (DNA methylation): 500 nM
